The record followed here is US8367721B2, “Methods of treating an overweight or obese subject” (Zafgen, Inc., priority 2008, dated 2013).

The subject of experiment [1] is diet-induced obese C57BL/6NTac mice. As to the kind of experiment: 7 day oral weight loss study in diet-induced obese mice (Example 5). In kind it is in vivo. Particulars: oral 1.0 mg/kg once a day for 7 days. As for the experimental part: A weight loss study was conducted in obese mice. The mice in this study were not genetically obese, but prior to and during the study, obesity was induced by a high-fat diet. Twelve week-old C57BL/6NTac mice, maintained on a 60% fat diet prior to and during the study, were separated into seven groups, eight animals per group. Average body weight of the mice was approximately 47 g at the start of the study.
Each of six groups was orally administered 1.0 mg/kg of a compound ([…] compounds B. C, D, E, F and G as disclosed herein), in 10% gelucire in deoinised water. Each of these six groups was administered a different compound. One group was orally administered fumagillin at 1.0 mg/kg (group 201) in 10% gelucire in deoinised water, and one group was administered 10% gelucire in deoinised water (vehicle). Mice received administrations once a day for 7 days.
(Data analyzed by ANCOVA with body weight on Day 1 as covariate followed by multiple tests against vehicle group: *p<0.05; **p<0.01, ***p<0.001.)

For experiment [2], the system named is Thioredoxin-1 (TXN) in B16F10 cells. As to the kind of experiment: N-terminal chymotryptic fragments of TXN by LC/MS in fumagillin-treated B16F10 cells. It counts as cell-based. As for the experimental part: B16F10 cells were treated with increasing concentrations of fumagillin. N-terminal chymotryptic fragments of TXN were measured by liquid chromatography/mass spectrometry (LC/MS). […] The EC50 of fumagillin to increase Met-TXN acetylated Met-TXN levels is <10 nM.

The subject of experiment [3] is TXN in Cos-1 and 293T cells. As to the kind of experiment: FLAG-tagged TXN expression (gel) in transfected Cos-1 and 293T cells. In kind it is cell-based. As for the experimental part:
EC50 of fumagillin to increase TXN levels is <10 nM.

Experiment [4] concerns C57BL/6 mice conditioned on a high fat diet. As to the kind of experiment: Oral gavage for 10 days in high fat diet mice. It counts as in vivo. As to conditions: oral gavage 0.3 or 3 mg/kg daily for 10 days. The source says:
(§1) Oral administration of the MetAP2 inhibitor fumagillin causes an increase in circulating ketone bodies, as measured by concentration of beta hydroxybutyrate, which indicates an increase in the breakdown of stored fat.

For experiment [5] the test system is unchanged. As to the kind of experiment: Diet admixture for 250 days in high fat diet mice. In kind it is in vivo. On the procedure:
as §1
In addition to showing an increase in beta hydroxybutyrate concentration, C57BL/6 mice conditioned on a high fat diet and treated with fumagillin (ZGN-201) as a diet admixture (1 mg/kg daily for 250 days) also experienced a reduction in body fat by approximately 40 percent (FIG. 6). Once attaining the maximum weight reduction, mice treated daily with 1 mg/kg fumagillin maintained a weight that was 25% less than that of age-matched mice maintained on normal mouse chow diet (lean mice, FIG. 6) for the duration of the experiment.
Adipose tissue in mice fed a high-fat diet show distinctive crown-like structures not seen in lean mice. These crown-like structures were also absent from the adipose tissue of fumagillin-treated mice.

Experiment [6] deals with High fat diet-fed C57BL/6 mice. As to the kind of experiment: 14 day body weight and food intake study in high fat diet-fed mice. It counts as in vivo. As for the experimental part:
High fat diet-fed C57BL/6 mice were treated with 1 mg/kg of the MetAP2 inhibitor fumagillin (ZGN-201, squares) or vehicle (diamonds) for 14 days (FIG. 10). Body weights (left panel) were determined daily, while food intake (right panel) was assessed every other day by measuring the food consumed by each cage of three mice over the two day period. Data shown in FIG. 10 are means±SEM, n=9 animals. […] First, during the initial two to three days of treatment, no overt changes in food intake or body weight are observed. During this time period key changes in MetAP2 substrates occur, including glyceraldehyde-3-phosphate dehydrogenase and thioredoxin (data not shown). Second, the animals enter a period of rapid weight loss that proceeds until essentially all excess fat deposits are consumed. During this second period, fat oxidation is enhanced and food intake is inhibited.
Weight loss following treatment with therapeutically relevant doses of MetAP2 inhibitors stops once animals attain a normal body composition. […] This third phase can be maintained indefinitely provided the drug is continued (see FIG. 10), or presumably can be maintained in practice through other complementary pharmacologic, dietary, or lifestyle interventions.

Experiment [7] concerns C57BL/6 mice conditioned on a high-fat diet. As to the kind of experiment: 28 day oral gavage, fat and lean tissue change in high fat diet mice. As to conditions: oral gavage 0.1 or 0.3 mg/kg for 28 days. It counts as in vivo. As for the experimental part: C57BL/6 mice were conditioned on a low-fat diet (LF), a high fat diet (HF), or a high-fat diet and treated with fumagillin (ZGN-201) administered by oral gavage at doses of 0.1 or 0.3 mg/kg for 28 days. […] To determine whether the weight loss resulted from loss of fat or loss of lean tissue, the percentage change in fat tissue and lean tissue was determined for LF mice, HF mice, HF mice treated with 0.1 mg/kg fumagillin, and HF mice treated with 0.3 mg/kg fumagillin.
Upon histological examination, the studies of treated obese mice show no effect on growth of new blood vessels in growing fat depots and no effect on blood vessel size or density when compared to animals in which weight loss has been induced by simple energy (food) restriction.

Setting [8] is: diet admixture 1 mg/kg daily for 250 days.

For `CO[C@@H]1[C@H](OC(=O)N[C@@H](C(N)=O)C(C)C)CC[C@]2(CO2)[C@H]1[C@@]1(C)O[C@@H]1CC=C(C)C` [B], in experiment [1], the “body weight change over the course of the 8 days” value (from here on “body weight change”) is recorded as “lost weight”.

`CO[C@@H]1[C@H](OC(=O)NCCC2CCCN2C)CC[C@]2(CO2)[C@H]1[C@@]1(C)O[C@@H]1CC=C(C)C` (stereo partly drawn) [C]: in experiment [1], the “body weight change” value is given as “lost weight”.

`CO[C@@H]1[C@H](OC(=O)N[C@@H](C(=O)NCCN2CCCC2)C(C)C)CC[C@]2(CO2)[C@H]1[C@@]1(C)O[C@@H]1CC=C(C)C` [E]: the “body weight change” value in experiment [1] is recorded as “lost weight”.

As to `CO[C@@H]1[C@H](OC(=O)/C=C/C=C/C=C/C=C/C(=O)O)CC[C@]2(CO2)[C@H]1[C@@]1(C)O[C@@H]1CC=C(C)C` [fumagillin], in experiment [2] (LC/MS), the “accumulation of N-acetyl TXN(1-4)” value was “significant accumulation” and the “cellular level of TXN containing an intact N-terminal methionine [TXN(1-4)]” value was “significantly increased”. Moreover, the EC50 in experiment [2] (Mus musculus, B16-F10, read-out: EC50 to increase Met-TXN acetylated Met-TXN levels) was < 10 nM. For the same compound, the “expression of TXN” value in experiment [3] (Cos-1 and 293T cells transfected with FLAG-tagged TXN) was “significantly increased”. In experiment [3] (gel, FIG. 4, read-out: EC50 to increase TXN levels), the EC50 is < 10 nM. In experiment [4], the beta hydroxybutyrate concentrations result is listed as “increase” and the “free fatty acid concentration” value was “without an increase”. Moreover, the “maintained weight less than that of age-matched lean mice on normal chow” value in experiment [5] (1 mg/kg daily, after maximum weight reduction) came out at 25%. Also, in experiment [5] (1 mg/kg, 250 days), the adipocyte size result is given as “more similar to that of age-matched lean mice”; the “crown-like structures in adipose tissue” value was “absent”; the “fasted glucose and insulin levels, insulin-glucose product” value is listed as “more similar to that of age-matched lean mice”; the “retroperitoneal fat pad weight” value is “more similar to that of age-matched lean mice”. Besides, the “size and appearance of epididymal fat, peri-renal fat and liver” value in experiment [5] (1 mg/kg, 250 days) is “more similar to that of age-matched lean mice”. In experiment [5] (setting [8]), the “hydroxybutyrate concentration at longer time points” value is recorded as “Increased hydroxybutyrate concentration persisted” and the “reduction in body fat” value is listed as “approximately 40%”. Moreover, the “food intake during period of rapid weight loss” value in experiment [6] (1 mg/kg for 14 days, second phase) is “inhibited”. In experiment [6] (1 mg/kg, third phase), the “food intake after weight loss nadir” value is listed as “returns to normal levels”. Moreover, in experiment [7], the body weight entry is listed as “reduction in body weight down to the level of low fat fed mice”, the reduction in fat is 40-50% and the “reduction in lean tissue” value is 5-10%. Further, in experiment [1], the “body weight change” value was “lost the most weight”.

Usually EC50 stands for the concentration needed to bring the measured effect to its halfway point.
